Measured values as given in patent publication US8685957B1 (Cubist Pharmaceuticals, Inc., priority 2012, dated 2014).

Experiment: Hygroscopicity experiments by DVS (water vapor sorption)
Format: physicochemical
Details: relative to amorphous tazobactam arginine and amorphous tazobactam sodium
Experimental: Analysis by DVS was performed on a VTI SGA-100 water vapor sorption analyser using approximately 18-23 mg of each sample. Each sample was pre-dried at 60° C. for a maximum of 1 hour and then analyzed at 25° C. in 10% relative humidity (RH) steps from 5-95% (adsorption) and then 90-10% RH (desorption). The sample was equilibrated to each humidity level for a maximum of 3 hours or until constant weight was attained. Equilibrium criteria were set at less than 0.0050% weight change within 5 minutes.

Q: With `C[C@]1(Cn2ccnn2)[C@H](C(=O)O)N2C(=O)CC2S1(=O)=O` (stereo partly shown) [Tazobactam arginine polymorph Ia, tazobactam arginine] as the compound, how does the hygroscopicity read?
A: Its hygroscopicity is “low hygroscopicity”.
